Assay results published in patent US10758522B2, “Small molecule analogs of the nemo binding peptide” (THE SCRIPPS RESEARCH INSTITUTE, priority 2015, dated 2020).

Assays:
p-IκBα = test: Western blot of IκBα phosphorylation after TNF-α; format: cell-based; conditions: 10 ng/ml TNF-α, 0, 5 and 10 min, 100 μM compound
Description: To confirm that the NBD mimetics reduce IKK activity, the extent of phosphorylation of the IKK target, IκBα, in response to 10 ng/ml of TNF-α was determined by Western blot at 0, 5 and 10 min after TNF-α stimulation. […] To determine if the mimetics also reduce NF-κB DNA binding activity, electrophoretic mobility shift assay (EMSA) was conducted both in vivo and in vitro.
HEK293 cells grown in a 6-well plate at 1×10^6 cells/well were left untreated or treated with 100 μM of ZINC12909780 or ZINC3369392 for 30 min, followed by 10 ng/ml of TNFα for 0, 5 and 10 min. Cells were then harvested for western blot. Cell lysate was prepared in RIPA buffer (20 mM Tris-HCl (pH 7.5), 150 mM NaCl, 1 mM Na^2EDTA, 1 mM EGTA, 1% NP-40, 1% sodium deoxycholate, 2.5 mM sodium pyrophosphate, 1 mM beta-glycerophosphate, 1 mM Na3VO4, 1 μg/ml leupeptin, 1× protease inhibitor cocktails (sigma) and 1× Halt phosphatase inhibitor cocktail (Thermo)). 30 ug of protein was resolved by MINI-PROTEAN TGX 4-15% SDS-PAGE. Blots were blocked in 5% non-fat milk. Primary antibodies were incubated at 4° C. overnight and secondary antibodies were incubated at room temperature for 1 hour. Anti-p-IκBα (1:1000 CST) and anti-IκBα (1:2000 CST) were used to assess NF-κB activation. Anti-GAPDH (1:5000 CST) was used as a loading control.

NF-κB = test: Firefly luciferase NF-κB reporter assay in TNF-α-stimulated HEK293 cells; format: cell-based; conditions: for inhibition of TNF-α-induced NF-κB activation (luciferase reporter), in words: 293 NF-κB luciferase reporter cells, 10 ng/ml TNF-α, compound 12909780 at 100 μM
Description: This model was used to screen a subset of the drug-like ZINC 8.0 database set (˜900,000 compounds) (Irwin et al., 2005). We were able to identify 161 hits that matched at least 6 features out of eight of the pharmacophore model. […] Two compounds termed NBDA-1 (Zinc-13) and NBDA-2 (Zinc-5), successfully passed these filters (See FIG. 4) and were purchased for biological testing. The compounds were then tested for ability to inhibit TNF-alpha-mediated induction of NF-κB activity in a 293 cells stably modified with a NF-κB luciferase reporter.
The activation of NF-κB was then quantitated by measuring the level of luciferase activity. […] Also, protein extracts were prepared from the same cells and the level of phospho-IkB determined, a marker of IKK activity.
To test if the small molecules identified by the in silico screen inhibit NF-κB activation, a HEK293 cell line stably expressing a luciferase reporter driven by a synthetic, NF-κB-dependent promoter was utilized. To induce NF-κB activation, cells were treated with 10 ng/ml of TNF-α and harvested three hours post-treatment for analysis of luciferase activity. […] To determine if compound 12909780 inhibited NF-κB in a dose dependent manner, concentrations were tested at 0, 6.25, 25, 50 and 100 μM.
HEK293 cells stably transfected with luciferase reporter plasmid driven by NF-κB were seeded in 96-well plate in triplicate and pretreated with DMSO or varying small molecules at indicated concentration for 30 min, followed by the stimulation of 10 ng/ml of TNFα for 3 hr. Cell were washed with PBS once and harvested in passive lysis buffer. Luciferase assay (Promega) was performed using a luminometer according to the manufacturer's instructions.

Nc1ncccc1C(=O)OCC(=O)Nc1ccc(Cl)cc1F [NBDA-1, 2-((4-chloro-2-fluorophenyl)amino)-2-oxoethyl 2-aminonicotinate]
level of phospho-IκBα / phosphorylation of IkB (p-IκBα): reduces the level of phospho-IκB | level of phospho-IκBα / phosphorylation of IkB (p-IκBα; listed as Zinc-13): reduced phosphorylation of IkB | level of phospho-IκBα / phosphorylation of IkB (p-IκBα; listed as compound 12909780): mild reduction | dose-dependent inhibition of TNF-α-induced NF-κB activation, in words (NF-κB; 0, 6.25, 25, 50 and 100 μM): only high concentrations (50 and 100 μM) of the compound were able to inhibit TNF-α-induced NF-κB activation significantly | inhibition of TNF-α-induced NF-κB activation (luciferase reporter), in words (NF-κB): slightly downregulated NF-κB activation | inhibition of TNF-α-induced NF-κB activation (luciferase reporter), in words (NF-κB; listed as Zinc-13): able to reduce activation of NF-κB by TNF-alpha at low micromolar ranges
